Test results published in PubChem BioAssay AID1963961 (Molecular Pharmacology Branch, DTP, NCI, 2024).

Tested on: K98450-129-R-PDC multicell spheroids, viability
Experiment: Anticancer human tumor K98450-129-R-PDC patient-derived colon adenocarcinoma cell line growth inhibition [PI3K]
Conditions: for viability, T/C: stronger effect = lower value; active means viability on the fitted dose curve at most 10% of control; inactive means the rest
Procedure, shortened: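 High-throughput combination screen: PI3K inhibitors crossed with targeted small molecules on complex spheroids of tumor cells, HUVEC and MSCs at 37 degrees C, 5% CO2. Top concentration was at or near clinical Cmax (otherwise 10 microM), with half-log decrements.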

[1] = curve of first compound, second compound 0.0316 µM
[2] = curve of first compound, second compound 0.1 µM
[3] = curve of first compound, second compound 0.316 µM
[4] = curve of first compound, second compound 1 µM
[5] = second compound 0.0316 µM, first compound 0.0316 µM
[6] = second compound 0.0316 µM, first compound 0.1 µM
[7] = second compound 0.1 µM, first compound 0.0316 µM
[8] = second compound 0.1 µM, first compound 0.1 µM
[9] = second compound 0.316 µM, first compound 0.0316 µM
[10] = second compound 0.316 µM, first compound 0.1 µM
[11] = second compound 1 µM, first compound 0.0316 µM
[12] = second compound 1 µM, first compound 0.1 µM
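Further: spheroids exposed to agents for seven days before read-out.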

Cn1ncc(Cl)c1-c1cc(C(=O)NC(CN)Cc2cccc(F)c2)sc1Cl (stereo not drawn) + COc1c(OCCCN2CCOCC2)ccc2c3n(c(=NC(=O)c4cnc(N)nc4)nc12)CCN3
inactive: viability, T/C (second compound 0.00316 µM, first compound 0.0316 µM) 112% | viability, T/C (second compound 0.00316 µM, first compound 0.1 µM) 101% | viability, T/C (second compound 0.00316 µM, first compound 0.316 µM) 99.2% | viability, T/C (second compound 0.00316 µM, first compound 1 µM) 98.8% | viability, T/C (second compound 0.00316 µM, first compound 3.16 µM) 89.2% | viability, T/C (second compound 0.00316 µM, first compound 10 µM) 63.9% | viability, T/C (second compound 0.01 µM, first compound 0.0316 µM) 117% | viability, T/C (second compound 0.01 µM, first compound 0.1 µM) 103% | viability, T/C (second compound 0.01 µM, first compound 0.316 µM) 103% | viability, T/C (second compound 0.01 µM, first compound 1 µM) 83.5% | viability, T/C (second compound 0.01 µM, first compound 3.16 µM) 78.9% | viability, T/C (second compound 0.01 µM, first compound 10 µM) 76% | viability, T/C [5] 86.9% | viability, T/C [6] 99.8% | viability, T/C (second compound 0.0316 µM, first compound 0.316 µM) 90.9% | viability, T/C (second compound 0.0316 µM, first compound 1 µM) 78.9% | viability, T/C (second compound 0.0316 µM, first compound 3.16 µM) 89% | viability, T/C (second compound 0.0316 µM, first compound 10 µM) 58.5% | viability, T/C [7] 72.4% | viability, T/C [8] 70.4% | viability, T/C (second compound 0.1 µM, first compound 0.316 µM) 78.9% | viability, T/C (second compound 0.1 µM, first compound 1 µM) 83.3% | viability, T/C (second compound 0.1 µM, first compound 3.16 µM) 69.5% | viability, T/C (second compound 0.1 µM, first compound 10 µM) 70.3% | viability, T/C [9] 64.6% | viability, T/C [10] 68.4% | viability, T/C (second compound 0.316 µM, first compound 0.316 µM) 70.6% | viability, T/C (second compound 0.316 µM, first compound 1 µM) 47.8% | viability, T/C (second compound 0.316 µM, first compound 3.16 µM) 80.4% | viability, T/C (second compound 0.316 µM, first compound 10 µM) 51% | viability, T/C [11] 52.4% | viability, T/C [12] 71.5% | viability, T/C (second compound 1 µM, first compound 0.316 µM) 48.7% | viability, T/C (second compound 1 µM, first compound 1 µM) 65.7% | viability, T/C (second compound 1 µM, first compound 3.16 µM) 59.8% | viability, T/C (second compound 1 µM, first compound 10 µM) 41.7%
> 10 µM: IC50 (curve of first compound, second compound 0.00316 µM) | IC50 (curve of first compound, second compound 0.01 µM) | IC50 [1] | IC50 [2] | IC50 [3] | IC50 [4]

CC(C)n1nc(-c2ccc3oc(N)nc3c2)c2c(N)ncnc21 + CC(Nc1ncnc2nc[nH]c12)c1cc2cccc(Cl)c2c(=O)n1-c1ccccc1
> 0.1 µM: IC50 [1] | IC50 [2] | IC50 [3] | IC50 [4] | IC50 (curve of first compound, second compound 3.16 µM) | IC50 (curve of first compound, second compound 10 µM)
inactive: viability, T/C (second compound 0.0316 µM, first compound 0.000316 µM) 106% | viability, T/C (second compound 0.0316 µM, first compound 0.001 µM) 91.5% | viability, T/C (second compound 0.0316 µM, first compound 0.00316 µM) 93.9% | viability, T/C (second compound 0.0316 µM, first compound 0.01 µM) 79% | viability, T/C [5] 84.6% | viability, T/C [6] 84.6% | viability, T/C (second compound 0.1 µM, first compound 0.000316 µM) 126% | viability, T/C (second compound 0.1 µM, first compound 0.001 µM) 96.9% | viability, T/C (second compound 0.1 µM, first compound 0.00316 µM) 106% | viability, T/C (second compound 0.1 µM, first compound 0.01 µM) 111% | viability, T/C [7] 81.1% | viability, T/C [8] 72.8% | viability, T/C (second compound 0.316 µM, first compound 0.000316 µM) 108% | viability, T/C (second compound 0.316 µM, first compound 0.001 µM) 134% | viability, T/C (second compound 0.316 µM, first compound 0.00316 µM) 81.3% | viability, T/C (second compound 0.316 µM, first compound 0.01 µM) 95.4% | viability, T/C [9] 92.7% | viability, T/C [10] 71.1% | viability, T/C (second compound 1 µM, first compound 0.000316 µM) 101% | viability, T/C (second compound 1 µM, first compound 0.001 µM) 111% | viability, T/C (second compound 1 µM, first compound 0.00316 µM) 84.3% | viability, T/C (second compound 1 µM, first compound 0.01 µM) 97.6% | viability, T/C [11] 92.1% | viability, T/C [12] 71.3% | viability, T/C (second compound 3.16 µM, first compound 0.000316 µM) 110% | viability, T/C (second compound 3.16 µM, first compound 0.001 µM) 97.4% | viability, T/C (second compound 3.16 µM, first compound 0.00316 µM) 103% | viability, T/C (second compound 3.16 µM, first compound 0.01 µM) 91.7% | viability, T/C (second compound 3.16 µM, first compound 0.0316 µM) 90.4% | viability, T/C (second compound 3.16 µM, first compound 0.1 µM) 67.3% | viability, T/C (second compound 10 µM, first compound 0.000316 µM) 92.6% | viability, T/C (second compound 10 µM, first compound 0.001 µM) 84.2% | viability, T/C (second compound 10 µM, first compound 0.00316 µM) 87.1% | viability, T/C (second compound 10 µM, first compound 0.01 µM) 88.5% | viability, T/C (second compound 10 µM, first compound 0.0316 µM) 87.6% | viability, T/C (second compound 10 µM, first compound 0.1 µM) 78.2%

CC(Nc1ccc2c(c1)OCCn1cc(N3C(=O)OCC3C(F)F)nc1-2)C(N)=O (stereo not drawn)
inactive: viability, T/C (compound 0.00316 µM) 107% [middle of 8 runs] | viability, T/C (compound 0.01 µM) 106% [middle of 8 runs] | viability, T/C (compound 0.0316 µM) 106% [middle of 8 runs] | viability, T/C (compound 0.1 µM) 105% [middle of 8 runs] | viability, T/C (compound 0.316 µM) 105% [middle of 8 runs] | viability, T/C (compound 1 µM) 92.3% [middle of 8 runs]
> 1 µM: IC50 (compound alone, run of 04/24/2023)

COc1c(OCCCN2CCOCC2)ccc2c3n(c(=NC(=O)c4cnc(N)nc4)nc12)CCN3
> 1 µM: IC50 (compound alone, run of 04/25/2023)
inactive: viability, T/C (compound 0.00316 µM) 97.8% [middle of 8 runs] | viability, T/C (compound 0.01 µM) 101% [middle of 8 runs] | viability, T/C (compound 0.0316 µM) 97.6% [middle of 8 runs] | viability, T/C (compound 0.1 µM) 77.9% [middle of 8 runs] | viability, T/C (compound 0.316 µM) 65.8% [middle of 8 runs] | viability, T/C (compound 1 µM) 54.2% [middle of 8 runs]
